Assay results from patent US12291516B2, “Substituted 1-amino-1H-imidazole-5-carboxamide as Bruton's tyrosine kinase inhibitors” (Henan Zhiwei Biomedicine Co., Ltd., priority 2019, dated 2025).

Columns and labels:
BTK [1] = target: T1, BTK (Homo sapiens (Human), UniProt Q06187); assay: BTK inhibition assay by Reaction Biology Corporation (33P-ATP, filter-binding); assay type: biochemical; conditions: footnote a: from Reaction Biology Corporation
Description: (§1) BTK inhibition Assay and selectivity Assay The assay was conducted either a by a third party (Reaction Biology Corporation, PA, USA) or in house.
a) Reagent and Procedure by Reaction Biology Corporation:
Base Reaction buffer; 20 mM Hepes (pH 7.5), 10 mM MgCl2, 1 mM EGTA, 0.02%. Brij35, 0.02 mg/ml BSA, 0.1 mM Na3VO4, 2 mM DTT, 1% DMSO. Required cofactors were added individually to each kinase reaction. Compound handling: testing compounds were dissolved in 100% DMSO to specific concentration. The serial dilution was conducted by Integra Viaflo Assist in DMSO.
The substrate was prepared in freshly prepared reaction buffer of above and required cofactors were added to the substrate solution. The kinase was delivered to the substrate solution and the mixture was gently mixed. Testing compounds in 100% DMSO was added to the kinase reaction mixture by Acoustic technology (Echo550; nanoliter range) and the new mixture was incubated for 20 min at room temperature. Then ^33P-ATP (Specific activity 10 μCi/μl) was added to the reaction mixture to initiate the reaction and the mixture was incubated for 2 hours at room temperature. The radioactivity was detected by filter-binding method and the kinase activity data was expressed as the percent of remaining kinase activity in test sample compared to vehicle (dimethyl sulfoxide) reaction. IC50 values and curve fits were obtained using Prism (GraphPad Software). The result is outlined in Table-I

BTK [2] = target: T1, BTK; assay: In house ELISA kinase inhibition assay, BTK; assay type: biochemical; conditions: footnote b: from in house procedure (ELISA)
Description: as §1
b) In House Procedure for BTK, BMX, EGFR and ITK:
Kinase inhibitory activities of compounds were evaluated using the Enzyme-linked immunosorbent assay (ELISA). The kinase enzyme of BTK, BMX, EGFR and ITK were purchased from Carna Bioscience (Kobe, Japan). A total of 10 ng/mL antiphosphotyrosine (PY713) antibody (abcam, Cambridge Science Park, UK) was precoated in 96-well ELISA plates. The kinase enzymes in each reaction well were set to BTK (101.25 ng/mL), BMX (90 ng/mL), EGFR (90 ng/mL) or ITK (120 ng/mL) and incubated with indicated drugs in 1× reaction buffer (50 mmol/L HEPES pH 7.4, 20 mmol/L MgCl2, 0.1 mmol/L MnCl2, 1 mmol/L DTT) containing 20 μmol/L (the final concentration of substrate in ITK reaction was 30 μmol/L) substrate (NH2-[…]-biotin) at 25° C. for 1 h. Then, a total of 3 μmol/L ATP was added and the reaction was continued for 2 h. The products of reaction were transferred into 96-well ELISA plates containing antibody and incubated at 25° C. for 30 min. After incubation, the wells were washed with PBS and then incubated with horseradish peroxidase (HRP)-conjugated streptavidin. The wells were visualized using 3,3′,5,5′-tetramethylbenzidine (TMB), and chromogenic reaction was ended with 2 mol/L H2SO4, the absorbance was read with a multimode plate reader (PerkinElmer, USA) at 450 nm. IC50 values and curve fits were obtained using Prism (GraphPad Software). (Table I-IV)

T1 sequence (Q06187 whole entry): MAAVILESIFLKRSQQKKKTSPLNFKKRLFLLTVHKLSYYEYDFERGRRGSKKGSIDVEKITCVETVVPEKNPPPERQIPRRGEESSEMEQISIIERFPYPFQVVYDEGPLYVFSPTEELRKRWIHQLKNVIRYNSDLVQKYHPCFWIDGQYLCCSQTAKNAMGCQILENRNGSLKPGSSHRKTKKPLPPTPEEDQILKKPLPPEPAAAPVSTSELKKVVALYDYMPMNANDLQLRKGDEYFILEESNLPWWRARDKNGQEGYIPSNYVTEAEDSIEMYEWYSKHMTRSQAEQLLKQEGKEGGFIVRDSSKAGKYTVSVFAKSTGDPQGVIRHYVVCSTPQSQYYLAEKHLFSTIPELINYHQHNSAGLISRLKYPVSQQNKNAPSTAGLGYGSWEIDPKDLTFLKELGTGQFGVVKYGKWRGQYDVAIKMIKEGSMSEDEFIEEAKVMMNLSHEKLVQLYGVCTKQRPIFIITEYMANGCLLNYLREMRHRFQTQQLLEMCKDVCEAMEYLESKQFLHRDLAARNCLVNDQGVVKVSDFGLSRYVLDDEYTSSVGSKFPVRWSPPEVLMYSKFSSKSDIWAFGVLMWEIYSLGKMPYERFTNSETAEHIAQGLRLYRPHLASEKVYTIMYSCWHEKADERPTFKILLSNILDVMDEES

C=CC(=O)N1CCCC[C@H]1c1nc(-c2ccc(C(=O)Nc3cc(-c4ccc(F)cc4)ccn3)cc2)c(C(N)=O)n1N [Example 91, (S)-2-(1-acryloylpiperidin-2-yl)-1-amino-4-(4-((4-(4-fluorophenyl)pyridin-2-yl)carbamoyl)phenyl)-1H-imidazole-5-carboxamide]
IC50 (BTK [1]): 4.97 nM

C=CC(=O)N1CCCC[C@H]1c1nc(-c2ccc(C(=O)Nc3ccc(Cl)cn3)cc2)c(C(N)=O)n1N [Example 86, (S)-2-(1-acryloylpiperidin-2-yl)-1-amino-4-(4-((5-chloropyridin-2-yl)carbamoyl)phenyl)-1H-imidazole-5-carboxamide]
IC50 (BTK [1]): 29.2 nM

N#CN1CCC[C@H]1c1nc(-c2ccc(C(=O)Nc3ccccn3)cc2)c(C(N)=O)n1N [Example 9, (S)-1-amino-2-(1-cyanopyrrolidin-2-yl)-4-(4-(pyridin-2-ylcarbamoyl)phenyl)-1H-imidazole-5-carboxamide]
IC50 (BTK [1]): 5920 nM

C=CC(=O)N1CCCC[C@H]1c1nc(-c2ccc(C(=O)Nc3nccs3)cc2)c(C(N)=O)n1N [Example 105, (S)-2-(1-acryloylpiperidin-2-yl)-1-amino-4-(4-(thiazol-2-ylcarbamoyl)phenyl)-1H-imidazole-5-carboxamide]
IC50 (BTK [1]): 18.7 nM

C=CC(=O)N1CCCC[C@H]1c1nc(-c2ccc(C(=O)Nc3cc(-c4ccc(Cl)cc4)ccn3)cc2)c(C(N)=O)n1N [Example 109, (S)-2-(1-acryloylpiperidin-2-yl)-1-amino-4-(4-((4-(4-chlorophenyl)pyridin-2-yl)carbamoyl)phenyl)-1H-imidazole-5-carboxamide]
IC50 (BTK [2]): 1.9 nM

C=CC(=O)N1CCC[C@H]1c1nc(-c2ccc(C(=O)Nc3cc(CC)ccn3)cc2)c(C(N)=O)n1N [Example 35, (S)-2-(1-acryloylpyrrolidin-2-yl)-1-amino-4-(4-((4-ethylpyridin-2-yl)carbamoyl)phenyl)-1H-imidazole-5-carboxamide]
IC50 (BTK [2]): 33 nM

C#CC(=O)N1CCCC[C@H]1c1nc(-c2ccc(C(=O)Nc3cc(Cl)ccn3)cc2)c(C(N)=O)n1N [Example 99, (S)-1-amino-4-(4-((4-chloropyridin-2-yl)carbamoyl)phenyl)-2-(1-propioloylpiperidin-2-yl)-1H-imidazole-5-carboxamide]
IC50 (BTK [2]): 2.78 nM

C=CC(=O)N1CCCCCC1c1nc(-c2ccc(C(=O)Nc3cc(CC)ccn3)cc2)c(C(N)=O)n1N (stereo not shown) [Example 94, 2-(1-acryloylazepan-2-yl)-1-amino-4-(4-((4-ethylpyridin-2-yl)carbamoyl)phenyl)-1H-imidazole-5-carboxamide]
IC50 (BTK [2]): 226 nM

C=CC(=O)N1CCC[C@H]1c1nc(-c2ccc(C(=O)Nc3cc(C)ccn3)cc2)c(C(N)=O)n1N [Example 10, (S)-2-(1-acryloylpyrrolidin-2-yl)-1-amino-4-(4-((4-methylpyridin-2-yl)carbamoyl)phenyl)-1H-imidazole-5-carboxamide]
IC50 (BTK [2]): 79 nM

CC#CC(=O)N1CCCC[C@H]1c1nc(-c2ccc(C(=O)Nc3cc(-c4ccc(C#N)cc4)ccn3)cc2)c(C(N)=O)n1N [Example 112, (S)-1-amino-2-(1-(but-2-ynoyl)piperidin-2-yl)-4-(4-((4-(4-cyanophenyl)pyridin-2-yl)carbamoyl)phenyl)-1H-imidazole-5-carboxamide]
IC50 (BTK [2]): 22.8 nM

CCc1ccnc(NC(=O)c2ccc(-c3nc([C@@H]4CCCCN4C(=O)/C(C#N)=C/C(C)C)n(N)c3C(N)=O)cc2)c1 [Example 79, (S,E)-1-amino-2-(1-(2-cyano-4-methylpent-2-enoyl)piperidin-2-yl)-4-(4-((4-ethylpyridin-2-yl)carbamoyl)phenyl)-1H-imidazole-5-carboxamide]
IC50 (BTK [2]): 1720 nM

CC#CC(=O)N1CCCC[C@H]1c1nc(-c2ccc(C(=O)Nc3cc(OC)ccn3)cc2)c(C(N)=O)n1N [Example 68, (S)-1-amino-2-(1-(but-2-ynoyl)piperidin-2-yl)-4-(4-((4-methoxy-pyridin-2-yl)carbamoyl)phenyl)-1H-imidazole-5-carboxamide]
IC50 (BTK [2]): 79.6 nM

C=CC(=O)N1CCC[C@H]1c1nc(-c2ccc(C(=O)Nc3ccc(C)cn3)cc2)c(C(N)=O)n1N [Example 19, (S)-2-(1-acryloylpyrrolidin-2-yl)-1-amino-4-(4-((5-methylpyridin-2-yl)carbamoyl)phenyl)-1H-imidazole-5-carboxamide]
IC50 (BTK [2]): 212 nM

CC#CC(=O)N1CCCC[C@H]1c1nc(-c2ccc(C(=O)Nc3cc(CC)ccn3)cc2)c(C(N)=O)n1N [Example 77, (S)-1-amino-2-(1-(but-2-ynoyl)piperidin-2-yl)-4-(4-((4-ethylpyridin-2-yl)carbamoyl)phenyl)-1H-imidazole-5-carboxamide]
IC50 (BTK [2]): 17.9 nM

CC#CC(=O)N1CCCC[C@H]1c1nc(-c2ccc(C(=O)Nc3cccnn3)cc2)c(C(N)=O)n1N [Example 102, (S)-1-amino-2-(1-(but-2-ynoyl)piperidin-2-yl)-4-(4-(pyridazin-3-ylcarbamoyl)phenyl)-1H-imidazole-5-carboxamide]
IC50 (BTK [2]): 2280 nM

CC#CC(=O)N1CCCC[C@H]1c1nc(-c2ccc(C(=O)Nc3cc(-c4ccccc4)ccn3)cc2)c(C(N)=O)n1N [Example 66, (S)-1-amino-2-(1-(but-2-ynoyl)piperidin-2-yl)-4-(4-((4-phenylpyridin-2-yl)carbamoyl)phenyl)-1H-imidazole-5-carboxamide]
IC50 (BTK [2]): 16.4 nM

CCc1ccnc(NC(=O)c2ccc(-c3nc([C@@H]4CCCCN4C(=O)/C(C#N)=C/C4CC4)n(N)c3C(N)=O)cc2)c1 [Example 78, (S,E)-1-amino-2-(1-(2-cyano-3-cyclopropylacryloyl)piperidin-2-yl)-4-(4-((4-ethylpyridin-2-yl)carbamoyl)phenyl)-1H-imidazole-5-carboxamide]
IC50 (BTK [2]): 6560 nM

C=CC(=O)N1CCC(Cc2nc(-c3ccc(C(=O)Nc4ccccn4)cc3)c(C(N)=O)n2N)CC1 [Example 103, 2-((1-acryloylpiperidin-4-yl)methyl)-1-amino-4-(4-(pyridin-2-ylcarbamoyl)phenyl)-1H-imidazole-5-carboxamide]
IC50 (BTK [2]): 176 nM

CC#CC(=O)N1CCCC[C@H]1c1nc(-c2ccc(C(=O)Nc3cc(C)c(F)cn3)cc2)c(C(N)=O)n1N [Example 108, (S)-1-amino-2-(1-(but-2-ynoyl)piperidin-2-yl)-4-(4-((5-fluoro-4-methylpyridin-2-yl)carbamoyl)phenyl)-1H-imidazole-5-carboxamide]
IC50 (BTK [2]): 121 nM

C#CC(=O)N1CCCC[C@H]1c1nc(-c2ccc(C(=O)Nc3cc(OC)ccn3)cc2)c(C(N)=O)n1N [Example 97, (S)-1-amino-4-(4-((4-methoxypyridin-2-yl)carbamoyl)phenyl)-2-(1-propioloylpiperidin-2-yl)-1H-imidazole-5-carboxamide]
IC50 (BTK [2]): 9.22 nM

C=CC(=O)N1CCCC[C@H]1c1nc(-c2ccc(C(=O)Nc3ccc(C)cn3)cc2)c(C(N)=O)n1N [Example 61, (S)-2-(1-acryloylpiperidin-2-yl)-1-amino-4-(4-((5-methylpyridin-2-yl)carbamoyl)phenyl)-1H-imidazole-5-carboxamide]
IC50 (BTK [2]): 18.4 nM

C=CC(=O)N1CCCC[C@H]1c1nc(-c2ccc(C(=O)Nc3cc(-c4ccc(C#N)cc4)ccn3)cc2)c(C(N)=O)n1N [Example 111, (S)-2-(1-acryloylpiperidin-2-yl)-1-amino-4-(4-((4-(4-cyanophenyl)pyridin-2-yl)carbamoyl)phenyl)-1H-imidazole-5-carboxamide]
IC50 (BTK [2]): 10.6 nM

C=CC(=O)N1CCC[C@H]1c1nc(-c2ccc(C(=O)Nc3cc(C(C)C)ccn3)cc2)c(C(N)=O)n1N [Example 44, (S)-2-(1-acryloylpyrrolidin-2-yl)-1-amino-4-(4-((4-isopropylpyridin-2-yl)carbamoyl)phenyl)-1H-imidazole-5-carboxamide]
IC50 (BTK [2]): 122 nM

C=CC(=O)N1CCCC[C@H]1c1nc(-c2ccc(C(=O)Nc3cc(C)c(F)cn3)cc2)c(C(N)=O)n1N [Example 107, (S)-2-(1-acryloylpiperidin-2-yl)-1-amino-4-(4-((5-fluoro-4-methylpyridin-2-yl)carbamoyl)phenyl)-1H-imidazole-5-carboxamide]
IC50 (BTK [2]): 44.5 nM

CCc1ccnc(NC(=O)c2ccc(-c3nc([C@@H]4CCCN4C#N)n(N)c3C(N)=O)cc2)c1 [Example 39, (S)-1-amino-2-(1-cyanopyrrolidin-2-yl)-4-(4-((4-ethylpyridin-2-yl)carbamoyl)phenyl)-1H-imidazole-5-carboxamide]
IC50 (BTK [2]): 3850 nM
